Key:
[1] = PLGA microspheres, subcutaneous injection, 50 mg/rabbit; cited from earlier work
[2] = drug saturated solubility in water; type: physicochemical
[3] = oil-in-water coefficient (logP) of nalbuphine and pro-soft drugs; type: physicochemical

## CCCCCCCCCC(=O)Oc1ccc2c3c1O[C@H]1[C@@H](O)CC[C@@]4(O)[C@@H](C2)N(CC2CCC2)CC[C@]314 [Nalbuphine decanoate]
[1]
  time the effective serum concentration lasted: 4 days
[2]
  Aqueous solubility: 0.67 µg/mL
[3]
  logP: 3.30

## CCCCCCC(=O)Oc1ccc2c3c1O[C@H]1[C@@H](O)CC[C@@]4(O)[C@@H](C2)N(CC2CCC2)CC[C@]314 [Nalbuphine enanthate]
[2]
  Aqueous solubility: 3.00 µg/mL
[3]
  logP: 1.94

## CC(C)(C)C(=O)Oc1ccc2c3c1O[C@H]1[C@@H](O)CC[C@@]4(O)[C@@H](C2)N(CC2CCC2)CC[C@]314 [Nalbuphine pivalate]
[1]
  time the effective serum concentration lasted: 4 days
[2]
  Aqueous solubility: 33.67 µg/mL
[3]
  logP: 1.42

## CCC(=O)Oc1ccc2c3c1O[C@H]1[C@@H](O)CC[C@@]4(O)[C@@H](C2)N(CC2CCC2)CC[C@]314 [Nalbuphine propionate]
[1]
  time the effective serum concentration lasted: 4 days
[2]
  Aqueous solubility: 44.67 µg/mL
[3]
  logP: 1.05

## O=C(CCCCCCCCC(=O)Oc1ccc2c3c1O[C@H]1[C@@H](O)CC[C@@]4(O)[C@@H](C2)N(CC2CCC2)CC[C@]314)Oc1ccc2c3c1O[C@H]1[C@@H](O)CC[C@@]4(O)[C@@H](C2)N(CC2CCC2)CC[C@]314 [Sebacoyl dinalbuphine ester]
[2]
  Aqueous solubility: <0.25 µg/mL
[3]
  logP: 3.15

Source: US20140112957A1, “Analegisic (Sebacoyl dinalbuphine ester) PLGA controlled release formulation form” (OLIVER YAO-PU HU, priority 2012, published 2014)
